Measurements published in publication PMC6227840 (Open Medicine, 2018).
Read-outs that look alike come from different tables or passages of the source.

Legend:
[1] = cited from earlier work
[2] = Population pharmacokinetic; conditions: normal renal function
[3] = cited from earlier work; remark: listed apart in the source

central volume of distribution ([2]; base model, n = 32): 7.12 L
Clearance of vancomycin – CL, Bootstrap analysis Estimate ([2]; final model parameter, 200 bootstrap runs): 0.0754 L/h
Central volume of distribution – V1, NONMEM Estimate ([2]; final model): 7.47 L
Central volume of distribution – V1, Bootstrap analysis Estimate ([2]; final model, 200 bootstrap runs): 7.55 L
central volume of distribution (base model, impaired renal function, n = 78): 22.7 L
central volume of distribution, renal impairment group versus normal group (base models, 22.7L vs. 7.12L): 3 times
Clearance of vancomycin – CL, Bootstrap analysis Estimate (final model parameter, impaired renal function, 200 bootstrap runs): 0.281 L/h
Central volume of distribution – V1, NONMEM Estimate (final model, impaired renal function): 29.9 L
Central volume of distribution – V1, Bootstrap analysis Estimate (final model, impaired renal function, 200 bootstrap runs): 30.7 L
Structure (SMILES): CN[C@H](CC(C)C)C(=O)N[C@H]1C(=O)N[C@@H](CC(N)=O)C(=O)N[C@H]2C(=O)N[C@H]3C(=O)N[C@H](C(=O)N[C@H](C(=O)O)c4cc(O)cc(O)c4-c4cc3ccc4O)[C@H](O)c3ccc(c(Cl)c3)Oc3cc2cc(c3O[C@@H]2O[C@H](CO)[C@@H](O)[C@H](O)[C@H]2O[C@H]2C[C@](C)(N)[C@H](O)[C@H](C)O2)Oc2ccc(cc2Cl)[C@H]1O [vancomycin, Vancomycin]
apparent volume of distribution ([1]; after intravenous administration, distributed in extracellular space): 0.4 to 1 L/kg
clearance [1]: about 2.64 l/h
interstitial fluid concentration in brain tissue ([3]; healthy adults): 0 to 3.45 mg/L
interstitial fluid concentration in the brain ([3]; patients with meningitis): 6.4 to 11.1 mg/L
